In patent US20240262842A1, “SMALL MOLECULE INHIBITORS OF KRAS G12C MUTANT” (Merck Sharp & Dohme LLC, priority 2021, published 2024):
Where two headings read alike, the source gives them in different places.

What was measured:
[1] = molecular target: T1, interaction between GMPPNP-bound recombinant K-Ras4B G12C mutant protein and cRAF RAS-binding domain (cRAF-RBD) (Homo sapiens, UniProt P01116, G12C); test: Inhibitory activity on interaction between KRAS G12C and cRAF (Alpha technology)
T1 construct: His-tag (N)
Description: Interaction between recombinant K-Ras4B G12C mutant protein (amino acids 1-169, SEQ ID NO:2) and cRAF RAS-binding domain (cRAF-RBD, amino acids 50-132, Jena Biosciences GmbH) was measured using Alpha technology (PerkinElmer Inc.).
Recombinant KRAS G12C protein with an N-terminal His-tag was expressed in E. coli and purified by affinity chromatography. To prepare GTP-bound form and GDP-bound form of KRAS G12C protein, 50 μM KRAS G12C protein was incubated with 1 mM GMPPNP (Guanosine-5′-[(β,γ)-imido]triphosphate, Tetralithium salt) (Jena Bioscience GmbH) and 1 mM GDP, respectively, in a loading buffer (20 mM Tris-HCl (pH 7.5), 50 mM NaCl, 1 mM DTT and 2.5 mM EDTA) for 1 hour on ice. After the incubation, MgCl2 was added to a final concentration of 10 mM, followed by incubation at room temperature for 30 minutes. The mixture was allowed to pass through a NAP-5 column to remove free nucleotides and purified, and the resultant nucleotide-bound KRAS G12C protein was used for compound evaluation.
For the measurement of the inhibitory activity of compounds on interaction between KRAS G12C and cRAF-RBD, GMPPNP-bound KRAS G12C protein was incubated with various concentrations of compound in a reaction buffer (20 mM Tris-HCl (pH 7.5), 100 mM NaCl, 1 mM MgCl2, 1 mM TCEP, 0.1% Tween 20) at 25° C. for 1 hour. After the incubation, recombinant cRAF-RBD and Alpha detection reagents were added and incubated at room temperature for 1.5 hours for binding. Interaction of KRAS G12C and cRAF-RBD was monitored by measuring Alpha signal. Inhibition % was calculated using the signal from the reaction without test compound (DMSO control) as 0% inhibition and the signal from the reaction using GDP-bound KRAS G12C in place of GMPPNP-bound KRAS G12C as 100% inhibition. IC50 values were calculated from dose titration curve using curve fitting by XLfit software (IDBS).

MIA PaCa-2 cells = test: Growth inhibition activity on KRAS-G12C mutant cell line (CellTiter-Glo 3D); format: cell-based, human; conditions: MIA PaCa-2, 3-day culture with compound
Description: MIA PaCa-2 cells (given by Sumitomo Dainippon Pharma Co., Ltd.), which are a KRAS-G12C mutant human pancreas cancer cell line, were suspended in a 10% fetal bovine serum-containing RPMI1640 medium (manufactured by Fujifilm Wako Pure Chemical Corporation). The cell suspension was seeded into each well of a 384-well U bottom microplate and cultured in an incubator containing 5% CO2 gas at 37° C. for 1 day. The compounds obtained in the “Preparation of Compounds” section were used as test compounds and were dissolved in DMSO, respectively, and each test compound was diluted with DMSO to give a concentration 500 times the final concentration. The resultant solution of the test compound in DMSO was diluted with the medium used for suspending cells and added to each well of the cell-culture plate to give a DMSO final concentration of 0.2%, followed by culture in an incubator containing 5% CO2 gas at 37° C. for another 3 days. The cell count after 3-day culture in the presence of the test compound was measured using CellTiter-Glo 3D Reagent (manufactured by Promega Corporation). All wells were added with CellTiter-Glo 3D Reagent and mixed for 10 minutes. 30 minutes after mixing, luminescence was measured by a plate reader. The growth inhibition rate was calculated from the following equation, and the concentration of the test compound at which 50% inhibition was achieved (IC50 (nM)) was determined.
[formula] • T: the emission intensity in a well into which a test compound was added. • C: the emission intensity in a well into which a test compound was not added.

[2] = GMPPNP-bound KRAS G12C incubated with compound 25° C. 1 hour, Table 2-1, read-out: IC50
[3] = Homo sapiens, MIA PaCa-2, 72 h, Table 3-1
[4] = IC50, GMPPNP-bound KRAS G12C incubated with compound 25° C. 1 hour, Table 2-1
[5] = IC50, GMPPNP-bound KRAS G12C incubated with compound 25° C. 1 hour, Table 2
[6] = GMPPNP-bound KRAS G12C incubated with compound 25° C. 1 hour, Table 2, read-out: IC50

T1 sequence (P01116 with tags, fused parts or gaps isoform P01116-2 G12C): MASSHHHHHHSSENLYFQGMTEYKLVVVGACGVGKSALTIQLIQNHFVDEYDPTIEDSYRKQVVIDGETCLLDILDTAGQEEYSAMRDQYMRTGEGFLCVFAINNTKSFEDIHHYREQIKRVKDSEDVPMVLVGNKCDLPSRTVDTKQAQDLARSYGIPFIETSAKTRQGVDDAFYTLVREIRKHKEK

How did the IC50 [1, 2] turn out when `CN1CCc2cc(C(=O)c3cc(F)c(NC(=O)/C=C/CN[C@H]4CCOC4)c(F)c3)n3cccc(c23)-c2c(C(F)(F)F)cc3[nH]cnc3c21` (atropisomer, axis not shown) [Example 218] was run?
Its IC50 is 27 nM.

And the IC50 (MIA PaCa-2 cells; [3])?
The IC50 was 14.2 nM.

How did the IC50 [1, 2] turn out when `CN1CCc2cc(C(=O)c3cc(F)c(NC(=O)/C=C/CNC4(C)CC4)c(F)c3)n3cccc(c23)-c2c(C(F)(F)F)cc3[nH]cnc3c21` (atropisomer, axis not shown) [Example 239, (E)-N-(2,6-difluoro-4-(12-methyl-7-(trifluorometh-yl)-9,12,13,14-tetrahydro-imidazo[4″,5″:5′,6′]benzo-[1′,2′:2,3]azocino[4,5,6-hi]indolizine-2-carbonyl)-phenyl)-4-((1-methyl-cyclopropyl)amino)but-2-enamide] was run?
Its IC50 is 18.2 nM.

And the IC50 (MIA PaCa-2 cells; [3])?
The IC50 was 9.69 nM.

With `Cc1cc2c(nc(C)n2C)c2c1-c1cccc3c(C(=O)c4cc(F)c(NC(=O)/C=C/CN[C@H]5C[C@@H]6CC[C@H]5O6)c(F)c4)cn(c13)CCN2C` (racemic) [Example 135] as the molecule, how does the IC50 [1, 4] read?
Its IC50 is 11 nM.

And the IC50 (MIA PaCa-2 cells; [3])?
Its IC50 is 28.9 nM.

Which IC50 [1, 4] does the source give for `Cc1cc2c(nc(C)n2C)c2c1-c1cccc3c(C(=O)c4cc(F)c(NC(=O)/C=C/CN5[C@@H]6CC[C@H]5[C@@H](O)C6)c(F)c4)cn(c13)CCN2C` (racemic) [Example 142] here?
The IC50 was 28.1 nM.

And the IC50 (MIA PaCa-2 cells; [3])?
Its IC50 is 85.5 nM.

What does the source list for `Cc1cc2c(nc(C)n2C)c2c1-c1cccc3c(C(=O)c4cc(F)c(NC(=O)/C=C/CN5[C@@H]6CC[C@H]5[C@H](O)C6)c(F)c4)cn(c13)CCN2C` (racemic) [Example 144]?
IC50 [1, 4]: 22.4 nM; IC50 (MIA PaCa-2 cells; [3]): 30.2 nM

Which results are given for `Cn1cnc2c3c(c(C(F)(F)F)cc21)-c1cccn2c(C(=O)c4cc(F)c(NC(=O)/C=C/CN5CC[C@H]6CC[C@H](O)[C@H]65)c(F)c4)cc(c12)CCO3` (racemic) [Example 163]?
IC50 [1, 2]: 33.5 nM; IC50 (MIA PaCa-2 cells; [3]): 42.7 nM

With `Cn1cnc2c3c(c(C(F)(F)F)cc21)-c1cccn2c(C(=O)c4cc(F)c(NC(=O)/C=C/CN5CC[C@H]6CC[C@@H](O)[C@H]65)c(F)c4)cc(c12)CCO3` (racemic) [Example 164] as the molecule, how does the IC50 [1, 2] read?
The IC50 was 21.5 nM.

What about the IC50 (MIA PaCa-2 cells; [3]) of the same molecule?
The IC50 was 13.7 nM.

`Cn1cnc2c3c(c(C(F)(F)F)cc21)-c1cccn2c(C(=O)c4cc(F)c(NC(=O)/C=C/CN5[C@@H]6CC[C@H]5[C@@H](O)C6)c(F)c4)cc(c12)CCO3` (racemic) [Example 172] was tested. Which IC50 [1, 2] did it give?
Its IC50 is 10.4 nM.

What about the IC50 (MIA PaCa-2 cells; [3]) of the same molecule?
The IC50 was 16.2 nM.

How did the IC50 [1, 2] turn out when `Cn1cnc2c3c(c(C(F)(F)F)cc21)-c1cccn2c(C(=O)c4cc(F)c(NC(=O)/C=C/CN5[C@@H]6CC[C@H]5[C@H](O)C6)c(F)c4)cc(c12)CCO3` (racemic) [Example 173] was run?
The IC50 was 7.02 nM.

What about the IC50 (MIA PaCa-2 cells; [3]) of the same molecule?
The IC50 was 10.6 nM.

Which IC50 [1, 2] does the source give for `Cn1cnc2c3c(c(C(F)(F)F)cc21)-c1cccn2c(C(=O)c4cc(F)c(NC(=O)/C=C/CN5C[C@@H]6COC[C@H]6C5)c(F)c4)cc(c12)CCO3` (racemic) [Example 248] here?
The IC50 was 18 nM.

And the IC50 (MIA PaCa-2 cells; [3])?
Its IC50 is 21.8 nM.

Which results are given for `CO[C@H]1CC[C@H](NC/C=C/C(=O)Nc2c(F)cc(C(=O)c3cn4c5c(cccc35)-c3c(Cl)cccc3OCC4)cc2F)CC1` (single isomer, unassigned) [Example 1-1]?
IC50 [1, 5]: > 6700 nM; IC50 (MIA PaCa-2 cells; Table 3): 7700 nM

How did the IC50 [1, 5] turn out when `CO[C@H]1CC[C@H](NC/C=C/C(=O)Nc2c(F)cc(C(=O)c3cn4c5c(cccc35)-c3c(Cl)cccc3OCC4)cc2F)CC1` (single isomer, unassigned) [Example 1-2] was run?
Its IC50 is 180 nM.

And the IC50 (MIA PaCa-2 cells; Table 3)?
Its IC50 is 160 nM.

`CC(C)(C)NC/C=C/C(=O)Nc1c(F)cc(C(=O)c2cn3c4c(cccc24)-c2c(Cl)cccc2OCCC3)cc1F` (single isomer, unassigned) [Example 2-1, (E)-4-(tert-butylamino)-N-(4-(11-chloro-5,6-dihydro-4H-benzo[8,9][1,5]oxazonino[7,6,5-hi]indole-1-carbonyl)-2,6-difluorophenyl)but-2-enamide] was tested. Which IC50 [1, 5] did it give?
Its IC50 is greater than 6700 nM.

And the IC50 (MIA PaCa-2 cells; Table 3)?
Its IC50 is 3100 nM.

What does the source list for `CC(C)(C)NC/C=C/C(=O)Nc1c(F)cc(C(=O)c2cn3c4c(cccc24)-c2c(Cl)cccc2OCCC3)cc1F` (single isomer, unassigned) [Example 2-2, (E)-4-(tert-butylamino)-N-(4-(11-chloro-5,6-dihydro-4H-benzo[8,9][1,5]oxazonino[7,6,5-hi]indole-1-carbonyl)-2,6-difluorophenyl)but-2-enamide]?
IC50 [1, 5]: 500 nM; IC50 (MIA PaCa-2 cells; Table 3): 390 nM

Which IC50 [1, 5] does the source give for `CO[C@H]1CC[C@H](NC/C=C/C(=O)Nc2c(F)cc(C(=O)c3cn4c5c(cccc35)-c3c(Cl)cccc3OCCC4)cc2F)CC1` (single isomer, unassigned) [Example 4-1, (E)-N-(4-(11-chloro-5,6-dihydro-4H-benzo[8,9][1,5]oxazonino[7,6,5-hi]indole-1-carbonyl)-2,6-difluorophenyl)-4-(((1,4r)-4-methoxycyclohexyl)amino)but-2-enamide] here?
The IC50 was greater than 6700 nM.

And the IC50 (MIA PaCa-2 cells; Table 3)?
The IC50 was 3600 nM.

`CO[C@H]1CC[C@H](NC/C=C/C(=O)Nc2c(F)cc(C(=O)c3cn4c5c(cccc35)-c3c(Cl)cccc3OCCC4)cc2F)CC1` (single isomer, unassigned) [Example 4-2, (E)-N-(4-(11-chloro-5,6-dihydro-4H-benzo[8,9][1,5]oxazonino[7,6,5-hi]indole-1-carbonyl)-2,6-difluorophenyl)-4-(((1,4r)-4-methoxycyclohexyl)amino)but-2-enamide] was tested. Which IC50 [1, 5] did it give?
Its IC50 is 290 nM.

What about the IC50 (MIA PaCa-2 cells; Table 3) of the same molecule?
The IC50 was 260 nM.

How did the IC50 [1, 5] turn out when `CO[C@H]1CC[C@H](NC/C=C/C(=O)Nc2c(F)cc(C(=O)c3cn4c5c(cccc35)-c3c(cc(N5CCCC5=O)cc3C(F)(F)F)OCC4)cc2F)CC1` (single isomer, unassigned) [Example 5-1, (E)-N-(2,6-difluoro-4-(8-(2-oxopyrrolidin-1-yl)-10-(trifluoromethyl)-4,5-dihydrobenzo[7,8][1.4]oxazocino[6,5,4-hi]indole-1-carbonyl)phenyl)-4-(((1r,4t)-4-methoxycyclohexyl)amino)but-2-enamide] was run?
Its IC50 is 53 nM.

And the IC50 (MIA PaCa-2 cells; Table 3)?
The IC50 was 14 nM.

What does the source list for `CO[C@H]1CC[C@H](NC/C=C/C(=O)Nc2c(F)cc(C(=O)c3cn4c5c(cccc35)-c3c(cc(N5CCCC5=O)cc3C(F)(F)F)OCC4)cc2F)CC1` (single isomer, unassigned) [Example 5-2, (E)-N-(2,6-difluoro-4-(8-(2-oxopyrrolidin-1-yl)-10-(trifluoromethyl)-4,5-dihydrobenzo[7,8][1.4]oxazocino[6,5,4-hi]indole-1-carbonyl)phenyl)-4-(((1r,4t)-4-methoxycyclohexyl)amino)but-2-enamide]?
IC50 [1, 5]: > 6700 nM; IC50 (MIA PaCa-2 cells; Table 3): 1800 nM

`C=C1Cc2cc(C(=O)c3cc(F)c(NC(=O)/C=C/CN[C@H]4CC[C@H](OC)CC4)c(F)c3)n3cccc(c23)-c2c(C)cc3c(nc(C)n3C)c21` [Example 48, (E)-N-(2,6-difluoro-4-(2,3,5-trimethyl-13-methylene-12,13-dihydro-3H-imidazo[4″,5″:5′,6′]benzo[1′,2′:6,7]cyclohepta[1,2,3-hi]indolizine-10-carbonyl)phenyl)-4-(((1r,4r)-4-methoxycyclohexyl)amino)but-2-enamide] was tested. Which IC50 [1, 6] did it give?
Its IC50 is 93 nM.

For `Cc1nc2c3c(c(C(F)(F)F)cc2n1C)-c1cccn2c(C(=O)c4cc(F)c(NC(=O)/C=C/CNC5(CF)COC5)c(F)c4)cc(c12)CCO3` [Example 50, (E)-N-(4-(9,10-dimethyl-7-(trifluoromethyl)-13,14-dihydro-9H-imidazo[4″,5″:5′,6′]benzo[1′,2′:2,3]oxocino[4,5,6-hi]indolizine-2-carbonyl)-2,6-difluorophenyl)-4-((3-(fluoromethyl)oxetan-3-yl)amino)but-2-enamide], which IC50 [1, 6] is on record?
Its IC50 is 780 nM.
